Test results from patent US20100113291A1 (CENTRE NATIONAL DE LA RECHERCHE SCIENTIFIQUE, priority 2006, published 2010).

Molecular target: T1, MabA-wt (Mycobacterium tuberculosis, UniProt P9WGT3)
T1 construct: made in house; host or cells: Escherichia coli
Format: binding
Details: spectrofluorimetry; read-out: KD for the cofactor

T1 sequence (P9WGT3 whole entry): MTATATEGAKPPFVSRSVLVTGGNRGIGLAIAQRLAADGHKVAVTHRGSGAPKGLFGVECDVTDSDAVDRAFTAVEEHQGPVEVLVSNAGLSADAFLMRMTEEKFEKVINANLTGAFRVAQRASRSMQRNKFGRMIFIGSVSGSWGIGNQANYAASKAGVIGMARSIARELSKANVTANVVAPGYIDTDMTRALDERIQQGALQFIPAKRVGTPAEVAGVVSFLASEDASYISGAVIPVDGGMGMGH

NC(=O)C1=CN([C@@H]2O[C@H](COP(=O)(O)OP(=O)(O)OC[C@H]3O[C@@H](n4cnc5c(N)ncnc54)[C@H](OP(=O)(O)O)[C@@H]3O)[C@@H](O)[C@H]2O)C=CC1 [NADPH]
Kd: 8.7 µM
